PMC11988454, “Discovery of synthetic small molecules targeting the central regulator of Salmonella pathogenicity” (Science Advances, 2025)

T1: HilE (Salmonella enterica subsp. enterica …)
T1 chain: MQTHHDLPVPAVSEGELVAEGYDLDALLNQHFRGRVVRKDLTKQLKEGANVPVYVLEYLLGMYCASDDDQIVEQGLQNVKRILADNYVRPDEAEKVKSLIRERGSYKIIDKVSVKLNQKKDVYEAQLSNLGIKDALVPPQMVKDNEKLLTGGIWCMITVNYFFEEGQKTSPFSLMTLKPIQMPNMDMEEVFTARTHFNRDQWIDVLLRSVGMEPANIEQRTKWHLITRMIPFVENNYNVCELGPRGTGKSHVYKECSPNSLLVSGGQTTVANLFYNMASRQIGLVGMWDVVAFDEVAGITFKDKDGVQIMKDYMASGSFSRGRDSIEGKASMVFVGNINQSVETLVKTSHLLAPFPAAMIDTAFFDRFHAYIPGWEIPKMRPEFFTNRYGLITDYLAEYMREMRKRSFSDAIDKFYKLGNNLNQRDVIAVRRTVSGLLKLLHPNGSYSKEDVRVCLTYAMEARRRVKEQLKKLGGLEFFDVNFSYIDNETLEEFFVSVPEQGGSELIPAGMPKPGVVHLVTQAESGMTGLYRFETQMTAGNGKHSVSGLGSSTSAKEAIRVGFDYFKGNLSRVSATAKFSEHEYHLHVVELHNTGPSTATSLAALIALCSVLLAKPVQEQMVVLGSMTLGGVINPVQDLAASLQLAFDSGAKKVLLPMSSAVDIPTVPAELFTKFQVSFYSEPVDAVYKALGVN

B1: HilD (natural protein)
chain: MENVTFVSNSHQRPAADNLQKLKSLLTNTRQQIKSQTQQVTIKNLYVSSFTLVCFRSGKLTISNNHDTIYCDEPGMLVLKKEQVVNVTLEEVNGHMDFDILEIPTQRLGALYALIPNEQQTKMAVPTEKAQKIFYTPDFPARREVFEHLKTAFSCTKDTSKGCSNCNNKSCIENEELIPYFLLFLLTAFLRLPESYEIILSSAQITLKERVYNIISSSPSRQWKLTDVADHIFMSTSTLKRKLAEEGTSFSDIYLSARMNQAAKLLRIGNHNVNAVALKCGYDSTSYFIQCFKKYFKTTPSTFIKMANH
notes: also called HilDWT; recombinant HilD; source: E. coli C41(DE3), purified (Ni-NTA, SUMO protease cleavage, second Ni-NTA, SEC)

What was measured:
HilD [1] = biological target: T2, HilD (Salmonella typhimurium, UniProt E1WAC0); experiment: Whole-cell HilD activity assay (PhilA-sfGFP activation); type: cell-based, S. Typhimurium; conditions: for activity in PhilA activation assay, in words: CDCA: highest tested concentration 100 μM
T2 construct: endogenous in cells; host or cells: S. Typhimurium SL1344 strain PhilA-sfGFP
Experimental: A whole-cell reporter gene assay was used to quantify HilD transcriptional activity. Strain PhilA-sfGFP and the isogenic ΔhilD PhilA-sfGFP were used for this purpose. Cultures were performed in 1 ml of LB supplemented with 0.3 M NaCl. Compounds at different concentrations or 1% (v/v) DMSO were added to the corresponding tubes. Cultures were incubated at 37°C and 180 rpm for 5 hours. Cells were pelleted, resuspended in 100 μl of PBS, and then transferred into a 96-well black clear-bottom plate (Thermo Fisher Scientific, USA). Fluorescence intensity was measured with a Tecan Spark microplate reader with an excitation wavelength of 485 nm and an emission wavelength of 510 nm. Dose-response curves and IC50 values were calculated using CDD Vault.

HilD [2] = biological target: T3, HilD (Salmonella typhimurium, UniProt P0CL08); experiment: nanoDSF thermal stability, HilD; type: binding, S. Typhimurium
T3 construct: His6-SUMO (N, cleaved yes); made in house; host or cells: E. coli C41(DE3)
Experimental: Thermal stability of proteins was determined using nanoDSF, with runs performed on a Prometheus NT.48 (NanoTemper Technologies). A twofold serial dilution series of C26 was prepared in DMSO. C26 was added to HilD or HilC (5 μM) in SEC buffer, giving a final DMSO concentration of 1% (v/v). Samples were incubated for >20 min at r.t. and centrifuged for 2 min prior to loading of standard capillaries (no. PR-C002). Samples were heated from 20° to 80°C with a temperature gradient of 0.5°C min^−1. Melting temperatures were calculated from changes in the fluorescence ratio (350/330 nm), using PR.Stability Analysis v1.0.3 and a temperature range of 40° to 70°C for curve fitting. Data analysis was performed using Prism 8.4 (GraphPad). The change in HilD melting temperature, Tm, was fitted as a function of ligand concentration, using Eqs. 1 and 2 to yield apparent affinity (Kd,app) values Tm{[L]0}=Tm,lower+(Tm,upper−Tm,lower)*(1−α{[L]0}) (1) α{[L]0}=[P]t−Kd−[L]t+{[P]t+[L]t+Kd,app}^2−{4[P]t[L]t}/2[P]t (2) where [P]t and [L]t are the total protein and ligand concentrations, respectively.

HeLa cells = experiment: Cytotoxicity, CellTox Green Cytotoxicity Assay, HeLa; type: cell-based; conditions: exposure time 18 h
Experimental: In vitro toxicity of compound C26 was assessed in HeLa cells (ATCC CCL-2) using the ApoTox-Glo Triplex Assay and in macrophages RAW 264.7-LgBiT using the CellTox Green Cytotoxicity Assay (Promega, USA) according to the manufacturer’s instructions. The screening of in vitro toxicity of the compound analogs was performed with the CellTox Green Cytotoxicity Assay (Promega, USA) according to the manufacturer’s instructions. Cells (10^4 cells per well) were seeded into a 96-well plate and incubated for 24 hours at 37°C, 5% (v/v) CO2. Cells were then treated with the compound at different concentrations or 1% (v/v) DMSO in Dulbecco’s modified Eagle’s medium (DMEM) without phenol red at the desired exposure time. Fluorescence intensity was measured with a TECAN Spark microplate reader. Cytotoxicity [relative fluorescence units (RFU)] and viability (RFU) values were plotted to calculate the TC50 using GraphPad Prism 10.1.1.
Compound concentration (µM) […]
in vitro cytotoxicity of C26 and analogs. Cytotoxicity assessed with CellTox™ Green Cytotoxicity Assay with an exposure time of 18 h. N = 3 biological replicates. Data were plotted and TC50 values were generated with GraphPad Prism 10.1.1.
(1 picture or pasted object on this page, not shown here)

HilD dimer = biological target: T4, HilD dimer (Salmonella typhimurium, UniProt P0CL08); experiment: BS3 cross-linking of HilD; type: biochemical, S. Typhimurium; conditions: oleic acid 50 and 100 μM; C26 up to 200 μM
T4 construct: His6-SUMO (N, cleaved yes); made in house; host or cells: E. coli C41(DE3)
Experimental: BS^3 cross-linking of HilD was performed as previously described ([39]). In summary, HilD (10 μM) was first incubated with C26 or oleic acid in SEC buffer for 20 min at r.t., with a final DMSO concentration of 1% (v/v). HilD was then cross-linked by incubation with 0.2 mM BS^3 (Thermo Fisher Scientific, Pierce, A39266) at r.t. for 1 hour, before the reaction was quenched by the addition of 50 mM Tris (pH 7.5). Samples were analyzed using SDS-PAGE and visualized by silver staining.

HilD-HilE heterodimer = HilD-HilE heterodimer (Salmonella typhimurium, UniProt P0CL08); experiment: MST dimerization assay HilD-HilE; type: binding, S. Typhimurium; conditions: 100 μM compound
Experimental: MST measurements for the binding of HilD to HilE were performed as previously described ([39]). In summary, enhanced yellow fluorescent protein (EYFP)-HilD (100 nM) was incubated with 100 μM either oleic acid or C26 [with a final concentration of 1% (v/v) DMSO] for 10 min at r.t. (22° to 25°C) and subsequently mixed 1:1 with varying concentrations of HilE. Samples were incubated together for 10 min at r.t., centrifuged for 5 min, and loaded to standard capillaries (NanoTemper Technologies GmbH, no. MO-K022). MST runs were performed at 25°C on a NanoTemper Monolith NT.115, with an excitation power of 60% and medium MST power. Data were analyzed using the MO.Affinity Analysis v2.3 software, and affinity constants were calculated using the Kd model.

SEC-MALS = biological target: the molecule itself; experiment: SEC-MALS
HilE [3] = biological target: T1, HilE; experiment: MST; 1% DMSO
HilE [4] = biological target: T1, HilE; experiment: MST; 100 uM C26

Molecule	IC50 (HilD [1]) [µM]	Kd (HilD [2]) [µM]	TC50 cytotoxicity (HeLa cells) [µM]	further results
Cc1ccc(CN(C)CC(=O)NCc2ccc3c(c2)OCO3)s1 [SW-C153]	63.1	8.8	> 100	
CCCCCC/C=C\CCCCCCCC(=O)O [palmitoleic acid, reference compound]	25.8			
CN(CC(=O)NCc1ccc2c(c1)OCO2)Cc1ccc(Br)o1 [SW-C210, N-(benzo[d][1,3]dioxol-5-ylmethyl)-2-{[(5-bromofuran-2-yl)methyl](methyl)amino}acetamide]	> 100	> 100	> 100	
CCCCCCCC/C=C\CCCCCCCC(=O)O [oleic acid, reference compound]	25.1			levels of cross-linked HilD dimer (HilD dimer): Decreased levels of the cross-linked HilD dimer; formation of HilD-HilE heterodimers (HilD-HilE heterodimer): disrupted the binding of HilE to HilD
CN(CC(=O)NCc1cc(Cl)cc(Cl)c1)Cc1ccc(Br)s1 [SW-C250, 2-{[(5-Bromothiophen-2-yl)methyl](methyl)amino}-N-(3,5-dichlorobenzyl)acetamide]	3.2	1.8	> 100	
CN(CC(=O)NCc1ccc(Cl)cc1)Cc1ccc(Br)s1 [SW-C202, 2-{[(5-Bromothiophen-2-yl)methyl](methyl)amino}-N-(4-chlorobenzyl)acetamide]	3.9	4.1	87.3	
CN(CC(=O)NCc1ccc2c(c1)OC(F)(F)O2)Cc1ccc(Br)s1 [SW-C182, 2-{[(5-Bromothiophen-2-yl)methyl](methyl)amino}-N-[(2,2-difluorobenzo[d][1,3]dioxol-5-yl)methyl]acetamide]	4.9	2.7	49.9	
CCCCCCCCCCCCC/C=C\C(=O)O [c2-HDA, cis-2-hexadecenoic acid, reference compound]	0.21			
C[C@H](CCC(=O)O)[C@H]1CC[C@H]2[C@@H]3[C@H](O)C[C@@H]4C[C@H](O)CC[C@]4(C)[C@H]3CC[C@]12C [CDCA, chenodeoxycholic acid, reference compound]				activity in PhilA activation assay, in words (HilD [1]): No activity
CN(CC(=O)NCc1ccc(O)c(O)c1)Cc1ccc(Br)s1 [SW-C170, 2-{[(5-Bromothiophen-2-yl)methyl](methyl)amino}-N-(3,4-dihydroxybenzyl)acetamide]	> 100	> 100	> 100	activity in PhilA activation assay, in words (HilD [1]): complete loss of activity
CN(CC(=O)NCc1ccc2c(c1)OCO2)Cc1ccccc1Br [SW-C165, N-(benzo[d][1,3]dioxol-5-ylmethyl)-2-[(2-bromobenzyl)(methyl)amino]acetamide]	> 100	> 100	> 100	
CN(CC(=O)NCc1ccccc1)Cc1ccc(Br)s1 [SW-C103]	34.4	28.8	> 100	
CN(CC(=O)NCc1ccc2c(c1)OCO2)Cc1ccc(Br)cc1 [SW-C116]	68.3	> 100	> 100	
B1				stoichiometry N (SEC-MALS): 2; Kd (HilE [3]): 1.7 µM; Kd (HilE [4]): 1.71 µM
